The text below walks through data of the supplement of paper PMC10307832.

One test concerns SW 900. The experiment in a line: relative viability (nuclei count vs DMSO), 5 days (fraction); higher = more cells survive. Particulars: first compound 0.8 µM. The procedure, abridged: (§1)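 Nuclei were stained with Hoechst during a one-step fixation (final 0.05% Triton X-100, 1% formaldehyde, 1 ug/ml Hoechst) carried out 5 days after dosing, then counted on 4× images. The cells, lung cancer lines in 1536-well plates, had been dosed by pin tool the day after seeding with one drug alone or a fixed anchor-drug dose plus five library-drug doses (not always all listed) in √10 steps. Relative viability is the nuclei count in treated wells divided by that in vehicle wells, and each value is the median of duplicate plates.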
The molecule `CCCCCCCCCCCC1=C(O)C(=O)C=C(O)C1=O` [Embelin] + NC(=O)Nc1cc(-c2cccc(F)c2)sc1C(=O)N[C@H]1CCCNC1 [AZD7762] (partner 0.2 µM) registered a relative viability of 0.624.
The same measure, in the same setting: the value for `CCCCCCCCCCCC1=C(O)C(=O)C=C(O)C1=O` [Embelin] + CC(=O)c1c(C)c2cnc(Nc3ccc(N4CCNCC4)cn3)nc2n(C2CCCC2)c1=O [Palbociclib] (partner 0.5 µM) was 0.576.

The test is the same for the next values; noted with them: first compound 2.53 µM.
With `CCCCCCCCCCCC1=C(O)C(=O)C=C(O)C1=O` [Embelin] + N=C(N)NC(=N)NCCc1ccccc1 [Phenformin] (partner 250 µM), the relative viability turned out to be 0.655.
In turn, `CCCCCCCCCCCC1=C(O)C(=O)C=C(O)C1=O` [Embelin] + CCNC(=O)c1noc(-c2cc(C(C)C)c(O)cc2O)c1-c1ccc(CN2CCOCC2)cc1 [Luminespib] (partner 0.01 µM) gave a relative viability of 0.188.
Still for that read-out and setting: the value for `CCCCCCCCCCCC1=C(O)C(=O)C=C(O)C1=O` [Embelin] + Cc1nc(Nc2ncc(C(=O)Nc3c(C)cccc3Cl)s2)cc(N2CCN(CCO)CC2)n1 [Dasatinib] (partner 0.075 µM) was 0.546; that for `CCCCCCCCCCCC1=C(O)C(=O)C=C(O)C1=O` [Embelin] + NC(=O)Nc1cc(-c2cccc(F)c2)sc1C(=O)N[C@H]1CCCNC1 [AZD7762] (partner 0.2 µM) was 0.502.
Same read-out and setting: the value for `CCCCCCCCCCCC1=C(O)C(=O)C=C(O)C1=O` [Embelin] + CC(=O)c1c(C)c2cnc(Nc3ccc(N4CCNCC4)cn3)nc2n(C2CCCC2)c1=O [Palbociclib] (partner 0.5 µM) was 0.668.

Still in this test, the particulars now being: first compound 8 µM.
As to `CCCCCCCCCCCC1=C(O)C(=O)C=C(O)C1=O` [Embelin] + N=C(N)NC(=N)NCCc1ccccc1 [Phenformin] (partner 250 µM), the relative viability stood at 0.481.
The same measure, in the same setting: the value for `CCCCCCCCCCCC1=C(O)C(=O)C=C(O)C1=O` [Embelin] + CCNC(=O)c1noc(-c2cc(C(C)C)c(O)cc2O)c1-c1ccc(CN2CCOCC2)cc1 [Luminespib] (partner 0.01 µM) was 0.18; that for `CCCCCCCCCCCC1=C(O)C(=O)C=C(O)C1=O` [Embelin] + Cc1nc(Nc2ncc(C(=O)Nc3c(C)cccc3Cl)s2)cc(N2CCN(CCO)CC2)n1 [Dasatinib] (partner 0.075 µM) was 0.57.
Same read-out and setting: next, `CCCCCCCCCCCC1=C(O)C(=O)C=C(O)C1=O` [Embelin] + NC(=O)Nc1cc(-c2cccc(F)c2)sc1C(=O)N[C@H]1CCCNC1 [AZD7762] (partner 0.2 µM): 0.628.
Still for that read-out and setting: the value for `CCCCCCCCCCCC1=C(O)C(=O)C=C(O)C1=O` [Embelin] + CC(=O)c1c(C)c2cnc(Nc3ccc(N4CCNCC4)cn3)nc2n(C2CCCC2)c1=O [Palbociclib] (partner 0.5 µM) was 0.549.

Another test relates to COR-L23. The test is described as above. The following applies: first compound 0.08 µM. The procedure, abridged: as §1
Molecule `CCCCCCCCCCCC1=C(O)C(=O)C=C(O)C1=O` [Embelin] + N=C(N)NC(=N)NCCc1ccccc1 [Phenformin] (partner 250 µM) came in with a relative viability of 0.448.
The same measure, in the same setting: next, `CCCCCCCCCCCC1=C(O)C(=O)C=C(O)C1=O` [Embelin] + CCNC(=O)c1noc(-c2cc(C(C)C)c(O)cc2O)c1-c1ccc(CN2CCOCC2)cc1 [Luminespib] (partner 0.01 µM): 0.773.
The same measure, in the same setting: the value for `CCCCCCCCCCCC1=C(O)C(=O)C=C(O)C1=O` [Embelin] + Cc1nc(Nc2ncc(C(=O)Nc3c(C)cccc3Cl)s2)cc(N2CCN(CCO)CC2)n1 [Dasatinib] (partner 0.075 µM) was 0.486; that for `CCCCCCCCCCCC1=C(O)C(=O)C=C(O)C1=O` [Embelin] + CC(=O)c1c(C)c2cnc(Nc3ccc(N4CCNCC4)cn3)nc2n(C2CCCC2)c1=O [Palbociclib] (partner 0.5 µM) was 0.346.

The test is the same for the next values; noted with them: first compound 0.8 µM.
Turning to `CCCCCCCCCCCC1=C(O)C(=O)C=C(O)C1=O` [Embelin] + N=C(N)NC(=N)NCCc1ccccc1 [Phenformin] (partner 250 µM), the relative viability was found to be 0.542.
On the same count and under the same terms, the value for `CCCCCCCCCCCC1=C(O)C(=O)C=C(O)C1=O` [Embelin] + CCNC(=O)c1noc(-c2cc(C(C)C)c(O)cc2O)c1-c1ccc(CN2CCOCC2)cc1 [Luminespib] (partner 0.01 µM) was 0.73; that for `CCCCCCCCCCCC1=C(O)C(=O)C=C(O)C1=O` [Embelin] + Cc1nc(Nc2ncc(C(=O)Nc3c(C)cccc3Cl)s2)cc(N2CCN(CCO)CC2)n1 [Dasatinib] (partner 0.075 µM) was 0.55; that for `CCCCCCCCCCCC1=C(O)C(=O)C=C(O)C1=O` [Embelin] + CC(=O)c1c(C)c2cnc(Nc3ccc(N4CCNCC4)cn3)nc2n(C2CCCC2)c1=O [Palbociclib] (partner 0.5 µM) was 0.351.

The test is the same for the next values; noted with them: first compound 2.53 µM.
Molecule `CCCCCCCCCCCC1=C(O)C(=O)C=C(O)C1=O` [Embelin] + N=C(N)NC(=N)NCCc1ccccc1 [Phenformin] (partner 250 µM) gave a relative viability of 0.426.
Same read-out and setting: the value for `CCCCCCCCCCCC1=C(O)C(=O)C=C(O)C1=O` [Embelin] + CCNC(=O)c1noc(-c2cc(C(C)C)c(O)cc2O)c1-c1ccc(CN2CCOCC2)cc1 [Luminespib] (partner 0.01 µM) was 0.911; that for `CCCCCCCCCCCC1=C(O)C(=O)C=C(O)C1=O` [Embelin] + Cc1nc(Nc2ncc(C(=O)Nc3c(C)cccc3Cl)s2)cc(N2CCN(CCO)CC2)n1 [Dasatinib] (partner 0.075 µM) was 0.458.
For the molecule `CCCCCCCCCCCC1=C(O)C(=O)C=C(O)C1=O` [Embelin] + CC(=O)c1c(C)c2cnc(Nc3ccc(N4CCNCC4)cn3)nc2n(C2CCCC2)c1=O [Palbociclib] (partner 0.5 µM), the relative viability is 0.313.

Still in this test, the particulars now being: first compound 8 µM.
With `CCCCCCCCCCCC1=C(O)C(=O)C=C(O)C1=O` [Embelin] + N=C(N)NC(=N)NCCc1ccccc1 [Phenformin] (partner 250 µM), the relative viability was 0.462.
For the molecule `CCCCCCCCCCCC1=C(O)C(=O)C=C(O)C1=O` [Embelin] + CCNC(=O)c1noc(-c2cc(C(C)C)c(O)cc2O)c1-c1ccc(CN2CCOCC2)cc1 [Luminespib] (partner 0.01 µM), the relative viability amounted to 0.763.
Same read-out and setting: next, `CCCCCCCCCCCC1=C(O)C(=O)C=C(O)C1=O` [Embelin] + Cc1nc(Nc2ncc(C(=O)Nc3c(C)cccc3Cl)s2)cc(N2CCN(CCO)CC2)n1 [Dasatinib] (partner 0.075 µM): 0.562.
